In ChEMBL document CHEMBL4616648, “Irijimasides A-E, Macrolide Glycosides from an Okeania sp. Marine Cyanobacterium” (J Nat Prod, 2020) one finds inhibition and Activity data, which are given here for five compounds.

For data set [1], the species on record is Mus musculus. Put plainly: Inhibition of RANKL-induced osteoclastogenesis in mouse RAW264 cells assessed as reduction in TRAP activity incubated for 4 days. The format is functional, cell-based.
Data set [2] is described as follows: Cytotoxicity against mouse RAW264 cells at 3 to 30 uM by MTT assay. Type of data set: cell-based. (In general: Tetrazolium dyes change colour on reduction, which living cells bring about.)

On to `C#CCCC/C=C/C=C/C1C/C(C)=C/[C@@H](OC)C[C@@H]2O[C@@](O)(CC(O[C@@H]3O[C@@H](C)[C@H](O)[C@@H](O)[C@H]3OC)[C@@H]2C)[C@H](C)C(=O)O1` (stereo not given in full), for which the inhibition result in data set [1] was “Dose-dependent effect”. For the same compound, the Activity result in data set [2] is “Non-Toxic”.

Regarding `C=CCC/C=C/C=C/C1C/C(C)=C/[C@@H](OC)C[C@@H]2O[C@](O)(CC(=O)O1)CC(O[C@@H]1O[C@@H](C)[C@H](O)[C@@H](OC)[C@H]1OC)[C@@H]2C` (stereo not given in full), in data set [1], the inhibition entry is “Dose-dependent effect”. The Activity result in data set [2] is recorded as “Non-Toxic”.

Turning to `C=CCC/C=C/C=C/C1C/C(C)=C/[C@@H](OC)C[C@@H]2O[C@@](O)(CC(O[C@@H]3O[C@@H](C)[C@H](O)[C@@H](O)[C@H]3OC)[C@@H]2C)[C@H](C)C(=O)O1` (stereo not given in full), in data set [1], the inhibition entry was “Dose-dependent effect”. Moreover, the Activity entry in data set [2] is recorded as “Non-Toxic”.

`C=CCC/C=C/C=C/C1C/C(C)=C/[C@@H](OC)C[C@H]2CC(O[C@@H]3O[C@@H](C)[C@H](O)[C@@H](OC)[C@H]3OC)C[C@](O)(O2)[C@H](C)C(=O)O1` (stereo not given in full): the inhibition result in data set [1] is “Dose-dependent effect”. Further, in data set [2], the Activity entry was “Non-Toxic”.

Turning to `C=CCC/C=C/C=C/C1C/C(C)=C/[C@@H](OC)C[C@@H]2O[C@@](O)(CC(O[C@@H]3O[C@@H](C)[C@H](O)[C@@H](OC)[C@H]3OC)[C@@H]2C)[C@H](C)C(=O)O1` (stereo not given in full), in data set [1], the inhibition entry is “Dose-dependent effect”. In addition, the Activity entry in data set [2] is on record as “Non-Toxic”.
